The target in this test is Histone-lysine N-methyltransferase EZH2 (Homo sapiens, UniProt Q15910). As to the kind of experiment: EZH2 Enzyme Activity Assay. Here is the method: The compounds were dissolved in DMSO, formulated into 10 mM solutions and serially diluted with DMSO to obtain 100-fold the final concentration. 200 nL of the solutions of the compounds was transferred to a 384-well plate (Perkin Elmer, Cat. No. 6007299) by using Echo550. EZH2 (BPS, Cat. No. 51004) was diluted with 1×assay buffer (50 mM Tris-HCl 9.0, 0.01% Tween-20, 1 mM DTT) to 2-fold the final concentration (EZH2: 3 nM). A mixed solution of H3K27(21-44) and [3H]-SAM (PerkinElmer, Lot. No. 2146246) (H3K27(21-44): 200 nM, [3H]-SAM: 100 nM) was formulated. The EZH2 diluted solution was taken and added to the 384-well plate at 10 μL/well (10 μL of 1×assay buffer was added in the control group). The plate was sealed and then incubated at room temperature for 15 minutes. 10 μL of the mixed solution of H3K27 (21-44) and [3H]-SAM was added to each well. The plate was sealed and then incubated at room temperature for 60 minutes. 50 μM of SAM (Sigma, Cat. No. A7007) was formulated at low temperature and added to the 384-well plate at 10 μL/well. The sample was taken at 25 μL/well, transferred to a flashplate and incubated at room temperature for at least 1 hour. The flashplate was washed 3 times with a plate washing liquid (dH2O+0.1% Tween-20) and read by using Microbeta.

Each structure is given as a SMILES string.

Here are results for two compounds from BindingDB's records for patent US20230365541 (Haisco Pharmaceuticals, 2023).

Histone-lysine N-methyltransferase EZH2, sequence (Q15910 whole entry): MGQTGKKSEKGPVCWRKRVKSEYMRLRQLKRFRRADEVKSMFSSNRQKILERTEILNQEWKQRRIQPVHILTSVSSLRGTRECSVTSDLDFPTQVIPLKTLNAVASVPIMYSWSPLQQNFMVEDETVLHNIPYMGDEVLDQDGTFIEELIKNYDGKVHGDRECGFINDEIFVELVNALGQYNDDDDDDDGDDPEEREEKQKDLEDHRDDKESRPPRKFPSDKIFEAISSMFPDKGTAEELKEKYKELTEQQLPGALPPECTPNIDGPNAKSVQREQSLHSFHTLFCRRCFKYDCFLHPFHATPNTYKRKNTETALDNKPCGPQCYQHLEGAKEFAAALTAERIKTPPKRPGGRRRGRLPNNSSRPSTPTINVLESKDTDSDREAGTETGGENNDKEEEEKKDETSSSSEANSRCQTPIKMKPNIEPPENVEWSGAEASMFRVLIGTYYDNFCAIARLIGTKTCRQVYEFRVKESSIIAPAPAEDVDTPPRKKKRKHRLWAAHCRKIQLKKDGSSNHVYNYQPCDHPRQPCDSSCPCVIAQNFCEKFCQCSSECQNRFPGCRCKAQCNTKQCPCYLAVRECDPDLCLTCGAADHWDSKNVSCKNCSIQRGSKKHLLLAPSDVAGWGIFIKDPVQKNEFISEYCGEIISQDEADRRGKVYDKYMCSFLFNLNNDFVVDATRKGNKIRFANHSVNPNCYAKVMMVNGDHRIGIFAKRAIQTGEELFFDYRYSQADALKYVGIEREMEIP

The IC50 is the concentration that gives 50% inhibition. Read a low IC50 as higher potency. For the compound `CNC(=O)N1CCC(C2(C)Oc3c(Cl)cc(C(=O)NCc4c(SC)cc(C)[nH]c4=O)c(C)c3O2)CC1` (configuration not stated) [US20230365541, Compound 13], the IC50 turned out to be 0.43 nM.

On to `CSc1cc(C)[nH]c(=O)c1CNC(=O)c1cc(Cl)c2c(c1C)OC(C)(C1CCN(S(C)(=O)=O)CC1)O2` (configuration not stated) [US20230365541, Compound 14], for which the half-maximal inhibitory concentration (IC50) is 0.48 nM.
